Columns and labels:
[1] = target: Kappa-type opioid receptor (Homo sapiens, UniProt P41145); experiment: Binding affinity to kappa opioid receptor
[2] = Selectivity ratio of Ki for mu opioid receptor to kappa opioid receptor

Chain of Kappa-type opioid receptor (P41145 whole entry): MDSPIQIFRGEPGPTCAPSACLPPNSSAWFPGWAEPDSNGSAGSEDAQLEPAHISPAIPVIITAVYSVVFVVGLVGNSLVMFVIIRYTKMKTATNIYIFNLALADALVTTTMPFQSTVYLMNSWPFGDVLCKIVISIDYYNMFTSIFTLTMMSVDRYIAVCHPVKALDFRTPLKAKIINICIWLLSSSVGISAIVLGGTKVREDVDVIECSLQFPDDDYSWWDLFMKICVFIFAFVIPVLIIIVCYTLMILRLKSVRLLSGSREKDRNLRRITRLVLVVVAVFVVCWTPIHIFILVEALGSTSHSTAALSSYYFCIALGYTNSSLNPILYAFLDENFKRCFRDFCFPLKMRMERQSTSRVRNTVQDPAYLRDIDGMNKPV

Structure (SMILES)	Ki [1] [pM]	Ratio Ki [2]
CN1c2ccccc2C(c2ccccc2F)=NCC1CNC(=O)c1ccsc1 (stereo unspecified) [TIFLUADOM]	170	8.8
COC(=O)[C@]12CN(C)C[C@](C(=O)OC)(C1=O)[C@@H](c1ccccn1)N(C)[C@H]2c1ccccn1	15000	> 66.7
COc1ccc([C@H]2CN3C(=NC[C@@H]3C)N2CCCc2ccccc2)cc1	39000	
CCC12CCN(CC3(O)CC3)C(Cc3ccc(O)cc31)C2(C)C (stereo unspecified) [BREMAZOCINE]	40	3.8
O=C(Nc1ccccc1)[C@H]1O[C@@]23CCC1(O)[C@@H]1Oc4c(O)ccc5c4[C@@]12CCN(CC1CC1)[C@@H]3C5 (single isomer, unassigned)	111	1.9
NC(=O)[C@H]1CSSC[C@@H](NC(=O)[C@@H](N)Cc2ccc(O)cc2)C(=O)N[C@@H](Cc2ccccc2)C(=O)N1	38700	0.03
O=C(NC[C@H]1C[C@]23CCN(CC4CC4)[C@H](Cc4ccc(O)cc42)[C@]3(O)CO1)c1ccccc1	135	1
O=C(Nc1ccccc1)[C@@H]1O[C@@]23CC[C@@]1(O)[C@@H]1Oc4c(O)ccc5c4[C@@]12CCN(CC1CC1)[C@@H]3C5	152	1.3
CN(C(=O)/C=C/c1ccco1)[C@@H]1CC[C@@]2(O)[C@H]3Cc4ccc(O)c5c4[C@@]2(CCN3CC2CC2)[C@H]1O5		2.6

From ChEMBL document CHEMBL1165960, “Identification of the three-dimensional pharmacophore of kappa-opioid receptor agonists” (Bioorg Med Chem, 2010)
